Key:
Sprague-Dawley rats = test: Physical dependence test: naloxone-precipitated withdrawal response after 7 days of increasing doses; assay type: in vivo; conditions: morphine hydrochloride s.c. twice a day, 5 mg/kg to 60 mg/kg, naloxone 5 mg/kg on day 8, within 30 min
Description: The morphine control group was injected subcutaneously with morphine hydrochloride twice a day. […] The Agriolima agrestis extract group was administered twice a day by oral gavage with increasing dose. The dosage was increased daily from […] to 3.0 g/kg and continuously administered until the 7th day. The negative control group was given the same volume of vegetable oil daily, and the administration time and frequency were the same as those in the Agriolima agrestis extract group. […]

[1] = system: sleep time of mice with pentobarbital sodium; test: Sleep time with pentobarbital sodium; assay type: in vivo, KM mice; conditions: estazolam 2 mg/kg; pentobarbital sodium 50 mg/kg 45 min after administration
Description: 40 KM mice (female:male 1:1) were fastened for 12 hrs, but allowed to free access to water. The mice were randomly divided into 4 groups, including a blank control group, a group with low-dose Agriolima agrestis extract (0.4 g/kg) prepared in the present invention, a group with high-dose Agriolima agrestis extract (0.8 g/kg) prepared in the present invention, and a positive control group (estazolam 2 mg/kg). Each group of mice was administered at the above dosage, and the blank control group was administered with the same volume of normal saline. After 45 minutes, each mouse was given 50 mg/kg of pentobarbital sodium, and then the sleep time of each group of mice was recorded (where the time at which the righting reflex disappeared after the administration was taken as the sleep onset time of the mice, and the duration from the time at which the righting reflex disappeared to the time at which the righting reflex returned was taken as the sleep time).

[2] = system: amphetamine-induced excitability in mice; test: Amphetamine-induced excitability (spontaneous activity recorder); assay type: in vivo, KM mice
Description: (§1) 40 KM mice (female:male 1:1) were fastened for 12 hrs, but allowed to free access to water. The mice were randomly divided into 4 groups, including a blank control group, a group with low-dose Agriolima agrestis extract (0.4 g/kg) prepared in the present invention, a group with high-dose Agriolima agrestis extract (0.8 g/kg) prepared in the present invention, and a positive control group (estazolam 2 mg/kg). Each group of mice was placed in a YLS-1A multifunctional small animal spontaneous activity recorder. After 5 minutes of accommodation, the number of spontaneous activities of the mice before administration was measured, and the recording time was 10 min.
Each group of mice was administered by oral gavage at the above dosage, and the blank control group was administered with the same volume of normal saline. Each mouse was intraperitoneally injected with amphetamine (8 mg/kg) 30 min after administration. After 15 minutes, the mice were placed in the recorder to observe and record the number of activities of the mice within 10 min.

[3] = system: morphine-induced excitability in mice; test: Morphine-induced excitability (spontaneous activity recorder); assay type: in vivo, KM mice
Description: as §1, with “min. Each group of mice was administered at the above dosage, and the blank control group was administered by oral gavage with the same volume of normal saline. […] After 15 minutes, the mice were placed in the recorder to observe and record the number of activities of the mice within 10 min.” for “min.”

morphine-dependent rats = test: Naloxone-precipitated withdrawal symptom scores in morphine-dependent rats; assay type: in vivo, Sprague-Dawley rats; conditions: methadone 20 mg/kg, naloxone 5 mg/kg 45 min after administration, response within 30 min
Description: (§2) 50 Sprague-Dawley rats (female:male 1:1) were randomized into 5 groups. Group (1) was a blank control group, and the rats were subcutaneously injected with normal saline. […] Each group was given a different treatment. Group (1), that is, the blank control group, was given the same volume of normal saline. […] Group (3), that is, the positive control group, was given 20 mg/kg of methadone. Groups (4) and (5), that is, groups with low and high doses of Agriolima agrestis extract prepared in the present invention, were given Agriolima agrestis extract at a dosage of 0.3 g/kg and 0.6 g/kg respectively. Each group of rats was administered for consecutive 3 days. The rats were allowed to free access to water and food. 45 minutes after administration on the first and third days of treatment, naloxone (5 mg/kg) was given for precipitation respectively. The withdrawal response of the rats within 30 minutes and the changes of body weight before and after precipitation (1 h) were observed.

[4] = Difference in body weight of rats before and after naloxone precipitation; assay type: in vivo, Sprague-Dawley rats; conditions: morphine-dependent rats, methadone 20 mg/kg, 1 h after precipitation
Description: as §2

morphine-dependent mice = test: Jumps of morphine-dependent mice upon naloxone-precipitated withdrawal; assay type: in vivo, KM mice; conditions: methadone 20 mg/kg, naloxone 8 mg/kg 1 hr after administration
Description: (§3) 50 KM mice (female:male 1:1) were randomized into 5 groups. Group (1) was a blank control group, and the mice were subcutaneously injected with normal saline. […] Each group was given a different treatment. Group (1), that is, the blank control group, was given the same volume of normal saline. […] Group (3), that is, the positive control group, was given 20 mg/kg of methadone. Groups (4) and (5), that is, groups with low and high doses of Agriolima agrestis extract prepared in the present invention, were given Agriolima agrestis extract at a dosage of 0.4 g/kg and 0.8 g/kg respectively. Each group of mice was administered for consecutive 3 days. The mice were allowed to free access to water and food. 1 hrs after administration on the first and third days of treatment, naloxone (8 mg/kg) was given for precipitation respectively. The jump reaction of the mice in each group within 30 minutes and the changes of body weight before and after precipitation were observed.

[5] = Difference in body weight of mice before and after naloxone precipitation; assay type: in vivo, KM mice; conditions: morphine-dependent mice, methadone 20 mg/kg
Description: as §3

[6] = baseline of estazolam 2 mg/kg group, recording time 10 min

CN1CC[C@]23c4c5ccc(O)c4O[C@H]2[C@@H](O)C=C[C@H]3[C@H]1C5.Cl [Morphine, morphine hydrochloride]
Withdrawal response score (Sprague-Dawley rats): 76.9 ± 14.53

Clc1ccc2c(c1)C(c1ccccc1)=NCc1nncn1-2 [estazolam]
Sleep time of mice [1]: 66.22 ± 13.77 min
Activities before administration [2, 6]: 183.7 ± 32.99 counts/min
Activities after administration ([2]; estazolam 2 mg/kg oral gavage, amphetamine 8 mg/kg i.p. 30 min after administration, recorded 15 min later within 10 min): 83.0 ± 40.14 counts/min
Activities before administration [3, 6]: 171.2 ± 38.94 counts/min
Activities after administration ([3]; estazolam 2 mg/kg, morphine 10 mg/kg i.p. 30 min after administration, recorded 15 min later within 10 min): 67.9 ± 40.31 counts/min

CCC(=O)C(CC(C)N(C)C)(c1ccccc1)c1ccccc1 (centres unmarked) [methadone]
Naloxone-precipitated withdrawal symptom score, Day 1 (morphine-dependent rats; day 1 of treatment): 49.35 ± 14.41
Naloxone-precipitated withdrawal symptom score, Day 3 (morphine-dependent rats; day 3 of treatment): 35.6 ± 18.73
Difference in body weight (before precipitation − after precipitation), Day 1 ([4]; day 1): 15.6 ± 6.39 g
Difference in body weight (before precipitation − after precipitation), Day 3 ([4]; day 3): 2.6 ± 2.75 g
Jumps upon precipitated withdrawal, Day 1 (morphine-dependent mice; day 1): 25.1 ± 6.9 jumps/30 min
Jumps upon precipitated withdrawal, Day 3 (morphine-dependent mice; day 3): 22.9 ± 6.81 jumps/30 min
Difference in body weight (before precipitation − after precipitation), Day 1 ([5]; day 1): 0.22 ± 0.19 g
Difference in body weight (before precipitation − after precipitation), Day 3 ([5]; day 3): 0.46 ± 0.23 g

Source: patent US11116802B2, “Extract effective in treating drug addiction and preparation method therefor” (GUANGXI JIUFU BIOTECHNOLOGY CO., LTD, priority 2016, dated 2021)
